Reference: US5015470A, “Cosmetic composition” (priority 1986, dated 1991)
Read-outs that look alike come from different tables or passages of the source.

Legend:
[1] = tested on: hair growth (clipped patch of skin, upper back of male rats); experiment: Measurement of hair growth using the rat model (cumulative clipped hair weight, topical application); assay type: in vivo
Experimental: The effect of compounds on hair growth was assessed using male rats as an animal model as follows. In each of the comparisons reported below, 10 rats were used.
A small patch of normal skin (4cm ×4cm) on the upper back of each rat was clipped at the start of the experiment and a hair growth stimulant composition (or a control) applied twice daily topically to the clipped area. Hair was clipped from the area of the patch twice weekly, collected and weighed at each time point, and cumulative hair weight calculated. […] A positive response, ie. an increase of at least 10% by weight of hair, compared with a control, indicates the potential of the test substance to prevent hair loss and/or reverse baldness in human subjects.
In this example, the effect of topical application of D-glucaro-1,4-lactone, an inhibitor of β-glucuronidaseis shown. The test solution in this experiment contained approximately 7% (w/v) of the glucarolactone in the form of an equilibrium mixture prepared from boiled calcium glucarate. The vehicle was 33% (v/v) ethanol containing 50mM Na citrate at pH 4.2. Test or control solutions (0.3ml) were applied twice-daily to the clipped site; the hair growth results are shown below in Table 2.
This effect is illustrated in Table 3 below, in which the vehicle was 33% v/v ethanol in 50mM sodium citrate, pH4.2:
In a further experiment, glucarolactone was tested in the presence of an activity enhancer, 1-methylpyrrolidone. Again, a significant increase in hair weight was obtained, as shown below in Table 4, in which the vehicle was 33% v/v aqueous ethanol containing 50mM Na citrate buffer pH4.2 and 10% w/v 1-methylpyrrolidone. […]

α-glucuronidase = details: Levvy and Snaith (1972); cited from earlier work
hair growth = details: 1% solution, daily application for six months; cited from earlier work
β-glucuronidase [2] = target: T1, β-glucuronidase (Homo sapiens, UniProt P08236); details: Levvy and Snaith (1972); cited from earlier work
T1 sequence (P08236 23-651): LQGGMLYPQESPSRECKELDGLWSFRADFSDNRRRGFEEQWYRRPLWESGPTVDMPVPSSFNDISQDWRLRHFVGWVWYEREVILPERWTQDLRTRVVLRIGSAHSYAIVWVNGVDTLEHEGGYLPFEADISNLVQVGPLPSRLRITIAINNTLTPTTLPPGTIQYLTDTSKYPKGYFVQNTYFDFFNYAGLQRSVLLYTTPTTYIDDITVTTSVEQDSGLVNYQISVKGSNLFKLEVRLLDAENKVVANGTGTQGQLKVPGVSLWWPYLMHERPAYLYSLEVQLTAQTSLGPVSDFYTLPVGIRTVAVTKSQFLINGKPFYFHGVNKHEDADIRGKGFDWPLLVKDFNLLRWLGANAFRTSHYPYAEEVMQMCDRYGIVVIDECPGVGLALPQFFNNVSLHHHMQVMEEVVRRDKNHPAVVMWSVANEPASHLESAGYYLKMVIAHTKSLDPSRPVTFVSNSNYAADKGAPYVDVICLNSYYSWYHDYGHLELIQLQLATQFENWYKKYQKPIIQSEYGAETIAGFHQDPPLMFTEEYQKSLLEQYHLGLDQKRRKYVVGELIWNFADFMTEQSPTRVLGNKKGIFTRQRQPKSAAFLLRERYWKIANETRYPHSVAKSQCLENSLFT

β-glucuronidase [3] = target: T1, β-glucuronidase; experiment: Inhibition of β-glucuronidase activity (nitrophenyl glucuronide substrate, method of Dingle); assay type: biochemical; details: for inhibition of γ-glucuronidase activity (so in the source), in words: statement referring to experiments described later
Experimental: In each of the assays referred to herein, the chemical inhibitor was tested at a pH close to the optimum pH value of the relevant enzyme, and under conditions of saturating substrate concentration, to ensure that Vmax was obtained in the controls. […] The activity of each of these four exoglycosidases was measured using a method described in "Lysosomes, A Laboratory Handbook", edited by […]., Second Edition, (1977) at page 118. […] [Ibid., page 118] as described herein. […] [Ibid., page 118]. The results when the acid or the lactone were incubated with a mixture of this enzyme and the nitrophenyl glucuronide substrate were as follow: […]

[4] = cited from earlier work
[5] = tested on: hair growth (skin of shaved rabbits); details: repeated injection into skin of shaved rabbits; cited from earlier work
[6] = Table 3, 7% glucarolactone, 0.2% minoxidil, or both, 45 days
[7] = Table 3, 7% glucarolactone, 0.2% minoxidil, or both, vehicle 33% v/v ethanol in 50mM sodium citrate, pH4.2, vehicle control 427.2 ± 58.7
[8] = read-out: percentage inhibition of a 1mM concentration, 1 mM, worked out from 1.03 or 1.14 mM

Question: For `O=C(O)[C@@H](O)[C@H]1OC(=O)[C@H](O)[C@H]1O` [glucarolactone, D-glucaro-1,4-lactone], which “stimulation of hair growth (increase)” value ([1]; 7% glucarolactone vs vehicle, Table 2) is on record?
Answer: The value was 13%.

Question: And the “increase in hair growth” value ([1]; 7% glucarolactone with 0.1% w/v Triton X-100, 43 days (Table 5))?
Answer: The value was 39%.

Question: And the “increase in hair growth” value ([1]; 7% glucarolactone with 10% w/v 1-methylpyrrolidone, 46 days (Table 4))?
Answer: Its value is 15%.

Question: What about the “Mean Cumulative hair weight (mg) ± sd, after 45 days” value ([1]; Table 2, approx. 7% (w/v), 0.3 ml twice daily, vehicle 33% (v/v) ethanol, 50mM Na citrate pH 4.2, vehicle control 427.2 ± 58.7) of the same compound?
Answer: The value was 482.7 ± 58.4 mg.

Question: And the “Increase in hair growth (%) (Test vs control)” value [1, 6]?
Answer: The value was 13%.

Question: What about the “Mean Cumulative hair weight (mg) ± sd, after 45 days” value [1, 7] of the same compound?
Answer: Its value is 482.7 ± 58.4 mg.

Question: What about the “Mean Cumulative Hair Weight (mg) ± sd, after 46 days” value ([1]; Table 4, 7%, vehicle 33% v/v aqueous ethanol, 50mM Na citrate pH4.2, 10% w/v 1-methylpyrrolidone, vehicle control 611.1 ± 48.1) of the same compound?
Answer: The value was 706.2 ± 86.6 mg.

Question: What about the “Mean Cumulative Hair Weight (mg) ± sd, after 43 days” value ([1]; Table 5, 7%, vehicle 20% v/v ethanol, 50mM sodium citrate pH4.2, 0.1% w/v Triton X-100, vehicle control 412.3 ± 57.5) of the same compound?
Answer: Its value is 573.3 ± 82.5 mg.

Question: What about the “effect on hair growth in combination with a low concentration of minoxidil” value ([1]; result in words) of the same compound?
Answer: The value was “synergistic effect on hair growth in combination with a low concentration of minoxidil”.

Question: And the “effect on onset of anagen / hair cycle” value ([1]; result in words)?
Answer: Its value is “consistently found to advance the onset of anagen, thus reducing the amount of time spent in the resting stage of hair cycle”.

Question: Which “inhibition of α-glucuronidase, in words” value (α-glucuronidase) does the source give for `O=C[C@H](O)[C@@H](O)[C@H](O)[C@H](O)C(=O)O` [glucuronic acid, D-glucuronic acid] here?
Answer: The value was “feebly inhibited”.

Question: And the “regrowth of hair, in words” value (hair growth)?
Answer: Its value is “regrowth of hair”.

Question: And the “inhibition of β-glucuronidase, in words” value (β-glucuronidase [2])?
Answer: The value was “feebly inhibited”.

Question: What about the inhibition at 200 µg/mL (β-glucuronidase [3]; 0.2 mg/ml (1.03 mM)) of the same compound?
Answer: The inhibition at 200 µg/mL was 20%.

Question: What about the “enzyme inhibition in words (weak inhibitor)” value (“enzyme inhibition in words” for short) (β-glucuronidase [3]; 1 mM, β-glucuronidase) of the same compound?
Answer: The value was “weak enzyme inhibitors”.

Question: What about the inhibition at 1000 µM (β-glucuronidase [3]; [8]) of the same compound?
Answer: The inhibition at 1000 µM was 19.4%.

Question: And the “inhibition of γ-glucuronidase activity (so in the source), in words” value (β-glucuronidase [3])?
Answer: The value was “weak inhibitors”.

Question: Which inhibition at 200 µg/mL (β-glucuronidase [3]; 0.2 mg/ml (1.14 mM)) does the source give for `O=C[C@H](O)[C@H]1OC(=O)[C@@H](O)[C@H]1O` [glucurono-6,3-lactone, D-Glucurono-6,3-lactone] here?
Answer: Its inhibition at 200 µg/mL is 51%.

Question: And the “enzyme inhibition in words” value (β-glucuronidase [3]; 1 mM, β-glucuronidase)?
Answer: The value was “weak enzyme inhibitors”.

Question: And the inhibition at 1000 µM (β-glucuronidase [3]; [8])?
Answer: Its inhibition at 1000 µM is 44.7%.

Question: What about the “inhibition of γ-glucuronidase activity (so in the source), in words” value (β-glucuronidase [3]) of the same compound?
Answer: The value was “weak inhibitors”.

Question: With `Nc1cc(N2CCCCC2)nc(N)[n+]1[O-]` [minoxidil, reference compound] as the compound, how does the “increase in hair growth” value ([1]; 2% (w/v) minoxidil vs vehicle, 45 days) read?
Answer: The value was 55%.

Question: And the “Mean Cumulative hair weight (mg) ± sd, after 45 days” value ([1]; Table 1, 2% (w/v) topical twice daily, vehicle 70% ethanol, 20% water, 10% propylene glycol, vehicle control 387.3 ± 75.9)?
Answer: Its value is 599.2 ± 85.1 mg.

Question: What about the “Increase in hair growth (%) (Test vs control)” value [1, 6] of the same compound?
Answer: The value was 9%.

Question: What about the “Mean Cumulative hair weight (mg) ± sd, after 45 days” value [1, 7] of the same compound?
Answer: The value was 465.8 ± 48.8 mg.

Question: What about the “side effects of orally administered minoxidil” value ([4]; oral) of the same compound?
Answer: Its value is “fluid retention, tachycardia, dyspnea, gynecomastia, fatigue, nausea and cardiotoxicity”.

Question: And the “side effects following topical application” value ([4]; topical)?
Answer: The value was “certain side effects have been experienced following topical application of minoxidil”.

Question: And the inhibition at 50 µg/mL (β-glucuronidase [3]; 0.05 mg/ml (0.24 mM))?
Answer: Its inhibition at 50 µg/mL is 2%.

Question: What about the inhibition at 400 µg/mL (β-glucuronidase [3]; 0.4 mg/ml (1.9 mM)) of the same compound?
Answer: Its inhibition at 400 µg/mL is 12%.

Question: What about the inhibition at 800 µg/mL (β-glucuronidase [3]; 0.8 mg/ml (3.8 mM)) of the same compound?
Answer: Its inhibition at 800 µg/mL is 23%.

Question: And the “enzyme inhibition in words” value (β-glucuronidase [3]; 1 mM, β-glucuronidase)?
Answer: The value was “weak enzyme inhibitor”.

Question: And the inhibition at 1000 µM (β-glucuronidase [3]; 1 mM, β-glucuronidase, read-out: enzyme inhibition in words (weak inhibitor))?
Answer: Its inhibition at 1000 µM is 5 to 50%.

Question: What about the inhibition at 1000 µM (β-glucuronidase [3]; read-out: percent inhibition of a 1mM concentration) of the same compound?
Answer: The inhibition at 1000 µM was 6%.

Question: For chondroitin-6-sulphate, which “initiation of the hair growth cycle with stimulation of hair growth, in words” value (“initiation of the hair growth cycle” for short) [5] is on record?
Answer: Its value is “also active in this respect, but to a lesser extent”.

Question: For dermatan sulphate, which “initiation of the hair growth cycle” value [5] is on record?
Answer: The value was “also active in this respect, but to a lesser extent”.

Question: For heparan sulphate, which “initiation of the hair growth cycle” value [5] is on record?
Answer: The value was “particularly active”.

Question: With zinc gluconate as the compound, how does the “increase in hair growth” value ([1]; 2% (w/v) zinc gluconate, 45 days (Table 6)) read?
Answer: The value was 16%.

Question: What about the “Mean Cumulative hair weight (mg) ± sd, after 45 days” value ([1]; Table 6, 2% (w/v), vehicle 20% aqueous ethanol, vehicle control 397.8 ± 56.3) of the same compound?
Answer: The value was 460.9 ± 45.7 mg.
